Structures can show the parent of a compound that is named as a salt.
Molecular target: Recombinant Human (rh) DPP1 (Homo sapiens, UniProt P53634)
Assay: Fluorescence Assay for Recombinant Human (rh) DPP1
Format: biochemical
Conditions: rhDPP1; substrate H-Gly-Arg-AMC; pH5.0; 30 min pre-incubation, 60 min reaction at 22° C.; highest concentration 10 μM; read-out: DPP1 activity, pIC50 (converted)
Experimental: Fluorescence Assay for Recombinant Human (rh) DPP1
The activity of DPP1 was determined by measuring the enzymatic release of aminomethyl coumarin (AMC) from the peptide substrate (H-Gly-Arg-AMC), which leads to an increase in fluorescence intensity at λex=350 nm and λem=450 nm. The assay was carried out in black 384 well plates in a final volume of 50 μl at 22° C. The assay conditions contained the following: 25 mM piperazine buffer pH5.0; 50 mM NaCl, 5 mM DTT; 0.01% (v/v) Triton X-100; 100 μM H-Gly-Arg-AMC and rhDPP1 ([…]). Potential inhibitors were made up in DMSO and then diluted in the assay to give a final concentration of 1% (v/v) DMSO. A 12-point half-log dilution of the inhibitors (highest concentration 10 μM) was tested and the pIC50 determined using a 4-parameter logistic equation in a non-linear curve fitting routine. A standard DPP1 inhibitor (vinyl sulfone, see below) was used as a positive control in the assay. Routinely, inhibitors were pre-incubated with rhDPP1 for 30 min prior to the addition of the peptide substrate to start the reaction for a further 60 min at 22° C. After that the plates were immediately read in a fluorescence plate reader using the above emission and excitation wavelengths [modified from Kam, C M, Gotz, M G, Koot, G, McGuire, M J, Thiele, D L, Hudig, D & Powers, J C (2004). Arch Biochem Biophys, 427, 123-134 & McGuire, M J, Lipsky, P E & Thiele, D L (1992). Arch Biochem Biophys, 295, 280-288].

Sequence of Recombinant Human (rh) DPP1 (P53634 25-463): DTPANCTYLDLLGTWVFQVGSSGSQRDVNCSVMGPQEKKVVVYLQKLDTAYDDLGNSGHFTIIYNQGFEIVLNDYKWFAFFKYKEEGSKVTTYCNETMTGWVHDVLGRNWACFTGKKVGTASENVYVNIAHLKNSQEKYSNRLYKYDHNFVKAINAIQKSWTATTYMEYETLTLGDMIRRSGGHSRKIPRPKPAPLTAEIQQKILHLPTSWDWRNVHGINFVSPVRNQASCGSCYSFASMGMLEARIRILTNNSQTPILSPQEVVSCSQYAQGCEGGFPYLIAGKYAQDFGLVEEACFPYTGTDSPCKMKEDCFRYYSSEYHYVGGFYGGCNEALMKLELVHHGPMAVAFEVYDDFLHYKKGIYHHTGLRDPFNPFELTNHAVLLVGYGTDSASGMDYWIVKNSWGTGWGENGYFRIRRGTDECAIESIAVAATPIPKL

Row | SMILES | IC50 [nM]
1 | N#C[C@H](Cc1ccc(-c2cccc(Cl)c2)cc1)NC(=O)[C@@H]1CCCCN1 [Example 1, (S)-N-((S)-2-(3′-Chlorobiphenyl-4-yl)-1-cyanoethyl)piperidine-2-carboxamide Trifluoroacetate] | 63.1
2 | N#C[C@H](Cc1ccc(-c2cccc(CN3CCCCC3)c2)cc1)NC(=O)[C@@H]1CCCCN1 [Example 2, (S)-N-((S)-1-Cyano-2-(3′-(piperidin-1-ylmethyl)biphenyl-4-yl)ethyl)piperidine-2-carboxamide di-trifluoroacetate] | 79.4
3 | N#C[C@H](Cc1ccc(-c2ccccc2)cc1)NC(=O)[C@@H]1CCCN1 [Example 3, (S)-N-((S)-2-(Biphenyl-4-yl)-1-cyanoethyl)pyrrolidine-2-carboxamide] | 316
4 | N#C[C@H](Cc1ccc(-c2cnn(Cc3ccccc3)c2)cc1)NC(=O)[C@@H]1CCCCN1 [Example 4, (S)-N-((S)-2-(4-(1-Benzyl-1H-pyrazol-4-yl)phenyl)-1-cyanoethyl)-piperidine-2-carboxamide Trifluoroacetate] | 31.6
5 | N#C[C@H](Cc1ccc(-c2ccc(C(N)=O)cc2)cc1)NC(=O)[C@@H]1CCCCN1 [Example 5, (S)-N-((S)-2-(4′-Carbamoylbiphenyl-4-yl)-1-cyanoethyl)piperidine-2-carboxamide Trifluoroacetate] | 63.1
6 | N#Cc1cccc(-c2ccc(C[C@@H](C#N)NC(=O)[C@@H]3CCCCN3)cc2)c1 [Example 6, (S)-N-((S)-1-Cyano-2-(3′-cyanobiphenyl-4-yl)ethyl)piperidine-2-carboxamide Trifluoroacetate] | 63.1
7 | N#C[C@H](Cc1ccc(-c2cccc(CN)c2)cc1)NC(=O)[C@@H]1CCCCN1 [Example 7, (S)-N-((S)-2-(3′-(Aminomethyl)biphenyl-4-yl)-1-cyanoethyl)piperidine-2-carboxamide Ditrifluoroacetate] | 100
8 | CC(=O)Nc1cccc(-c2ccc(C[C@@H](C#N)NC(=O)[C@@H]3CCCCN3)cc2)c1 [Example 8, (S)-N-((S)-2-(3′-Acetamidobiphenyl-4-yl)-1-cyanoethyl)piperidine-2-carboxamide Trifluoroacetate] | 126
9 | N#C[C@H](Cc1ccc(-c2ccc(CN3CCOCC3)cc2)cc1)NC(=O)[C@@H]1CCCCN1 [Example 9, (S)-N-((S)-1-Cyano-2-(4′-(morpholinomethyl)biphenyl-4-yl)ethyl)piperidine-2-carboxamide Trifluoroacetate] | 158

Other lines, results leading:

Row | IC50 [nM] | SMILES
10 | 794 | CN(C)C(=O)c1cc(Cl)cc(-c2ccc(CC(C#N)NC(=O)[C@@H]3CCCCN3)cn2)c1 (mixture of isomers) [Example 81, (S)-N-((S)-2-(6-(3-Chloro-5-(dimethylcarbamoyl)phenyl)pyridin-3-yl)-1-cyanoethyl)piperidine-2-carboxamide Trifluoroacetate]
11 | 15.8 | N#CC(Cc1ccc(-c2ccc(S(=O)(=O)N3CCOCC3)cc2)cc1)NC(=O)[C@@H]1CCCCN1 (mixture of isomers) [Example 94, (S)-N-((S)-1-Cyano-2-(4′-(morpholinosulfonyl)biphenyl-4-yl)ethyl)piperidine-2-carboxamide Trifluoroacetate]
12 | 251 | N#C[C@H](Cc1ccc(-c2cccnc2)cc1)NC(=O)[C@@H]1CCCCN1 [Example 10, (S)-N-((S)-1-Cyano-2-(4-(pyridin-3-yl)phenyl)ethyl)piperidine-2-carboxamide Trifluoroacetate]
13 | 316 | Cc1cc(O)ccc1-c1ccc(C[C@@H](C#N)NC(=O)[C@@H]2CCCCN2)cc1 [Example 11, (S)-N-((S)-1-Cyano-2-(4′-hydroxy-2′-methylbiphenyl-4-yl)ethyl)piperidine-2-carboxamide Trifluoroacetate]
14 | 398 | N#C[C@H](Cc1ccc(-c2cccc(C(=O)O)c2)cc1)NC(=O)[C@@H]1CCCCN1 [Example 12, 4′-((S)-2-Cyano-2-((S)-piperidine-2-carboxamido)ethyl)biphenyl-3-carboxylic Acid Trifluoroacetate]
